Measured values reported in US20120058997A1, “IMIDAZO[1,2-B]PYRIDAZINE AND PYRAZOLO[1,5-A]PYRIMIDINE DERIVATIVES AND THEIR USE AS PROTEIN KINASE INHIBITORS” (SuperGen, Inc., priority 2006, published 2012).
Several values for one entry are separate records, joined by “and”; a condition that tells them apart may be missing. Equal entries are not always repeated. Where two headings read alike, the source gives them in different places.

Key:
[1] = target: Pim-1 kinase (Homo sapiens, UniProt P11309); assay: Promega Kinase-Glo Pim-1 kinase inhibition assay; format: biochemical;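 further: in vitro Pim-1 reaction run 2 h at 30 °C, then leftover ATP measured by luciferase luminescence, where signal falls as kinase activity rises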
[2] = test system: K562 Cells; assay: Cell growth inhibition, Cell-Titer-Glo, 96 hours; format: cell-based; settings: Homo sapiens;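 further: luminescent ATP signal as an index of viable cell number, drug-treated versus cells given an equal volume of DMSO vehicle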
[3] = test system: phospho-Bad (S112) in MV-4-11 cells; assay: phospho-Bad (S112) Western blot in MV-4-11 cells; format: cell-based; settings: Homo sapiens, MV4-11, 1 hr treatment, HCl salts, read-out: EC50 on phosphorylation of Bad (S112)
Source text: One illustrative manner to determine the effect of Pim-1 inhibitors on the activity of the Pim-1 kinase is to measure the phosphorylation levels of the protein Bad at serine residue 112 (S112) (phospho-Bad or pBad). Pim-1 is known to cause the phosphorylation of Bad at S112 in order to inactivate the protein and inhibit its association with anti-apoptotic Bcl-2 family members, thereby allowing these Bcl-2 family members to further inhibit apoptotic signals.
Briefly, MV-4-11 (biphenotypic B myelomonocytic leukemia) cells were plated into T25 flasks in serum free media (SFM) at 1.5×10^5 cells/ml and allowed to grow for 24 hrs. After 24 hrs Pim-1 inhibitors at 10, 5, 1, 0.5, 0.1, or 0.01 μM concentrations were added to individual flasks. Treatment with the Pim-1 inhibitors continued for a duration of 1 hr. Cells were harvested after the 1 hr treatment and cell lysates were made from each sample. Equal amounts of total protein from the lysates were loaded onto a 10% Tris-glycine gel (Invitrogen) for SDS-PAGE analysis. […] In order to calculate the EC50 of inhibitors on phosphorylation of Bad (S112), the levels of total Bad protein were determined. […] Densitometry was used to quantitate the levels of each band on the Western blots and used to determine the EC50 of the Pim-1 inhibitors to alter the phospho-Bad protein levels.

[4] = test system: PC-3 Cells; assay: Cell growth inhibition, Cell-Titer-Glo, 96 hours; format: cell-based; settings: Homo sapiens;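 further: luciferase luminescence reflecting cellular ATP, used as a proxy for cell number, with compound-treated cells compared against DMSO vehicle control wells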
[5] = target: T1, Aurora-A (Homo sapiens, UniProt O14965); assay: Radiometric kinase panel selectivity assay; format: biochemical; set-up: dose or concentration left out as unconfirmed
T1 sequence (O14965 1-403): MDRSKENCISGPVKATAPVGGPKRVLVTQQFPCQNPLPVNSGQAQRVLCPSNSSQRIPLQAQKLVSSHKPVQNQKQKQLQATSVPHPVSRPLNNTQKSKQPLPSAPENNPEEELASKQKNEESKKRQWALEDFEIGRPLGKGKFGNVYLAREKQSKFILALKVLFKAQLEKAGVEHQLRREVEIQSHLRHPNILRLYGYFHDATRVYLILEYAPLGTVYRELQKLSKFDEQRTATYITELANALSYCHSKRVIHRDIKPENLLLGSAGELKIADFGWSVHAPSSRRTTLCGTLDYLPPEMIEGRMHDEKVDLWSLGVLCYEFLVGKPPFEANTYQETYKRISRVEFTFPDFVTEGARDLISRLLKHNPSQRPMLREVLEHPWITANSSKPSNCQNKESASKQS

[6] = target: CDK1 (Homo sapiens, UniProt P06493); assay: Radiometric kinase panel selectivity assay; format: biochemical; set-up: dose or concentration left out as unconfirmed
[7] = target: CDK2 (Homo sapiens, UniProt P24941); assay: Radiometric kinase panel selectivity assay; format: biochemical; set-up: dose or concentration left out as unconfirmed
[8] = target: Plk3 (Homo sapiens, UniProt Q9H4B4); assay: Radiometric kinase panel selectivity assay; format: biochemical; set-up: dose or concentration left out as unconfirmed
[9] = target: T2, Nek2 (Homo sapiens, UniProt P51955); assay: Radiometric kinase panel selectivity assay; format: biochemical; set-up: dose or concentration left out as unconfirmed
T2 sequence (P51955 1-445): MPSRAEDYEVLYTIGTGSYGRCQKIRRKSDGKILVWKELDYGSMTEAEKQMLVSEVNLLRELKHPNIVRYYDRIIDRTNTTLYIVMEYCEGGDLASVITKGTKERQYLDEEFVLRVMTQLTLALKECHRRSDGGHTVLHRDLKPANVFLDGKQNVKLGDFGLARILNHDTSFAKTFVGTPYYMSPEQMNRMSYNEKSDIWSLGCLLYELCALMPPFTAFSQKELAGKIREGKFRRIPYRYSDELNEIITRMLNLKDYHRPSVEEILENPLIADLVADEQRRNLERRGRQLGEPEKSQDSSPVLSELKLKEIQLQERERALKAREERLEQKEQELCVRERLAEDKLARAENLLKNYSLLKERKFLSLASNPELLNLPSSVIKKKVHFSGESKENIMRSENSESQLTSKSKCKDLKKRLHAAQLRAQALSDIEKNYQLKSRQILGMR

[10] = target: Able (Homo sapiens, UniProt P00519); assay: Radiometric kinase panel selectivity assay; format: biochemical; set-up: dose or concentration left out as unconfirmed
[11] = target: c-Kit (Homo sapiens, UniProt P10721); assay: Radiometric kinase panel selectivity assay; format: biochemical; set-up: dose or concentration left out as unconfirmed
[12] = target: EGFR (Homo sapiens, UniProt P00533); assay: Radiometric kinase panel selectivity assay; format: biochemical; set-up: dose or concentration left out as unconfirmed
[13] = target: Jak2 (Homo sapiens, UniProt O60674); assay: Radiometric kinase panel selectivity assay; format: biochemical; set-up: dose or concentration left out as unconfirmed
[14] = Table VIII (results), values in nM, read-out: IC50(Kinase)
[15] = K562, Table IX (results), read-out: IC50 (K562)
[16] = Table IX (results), read-out: IC50 (PC-3)

Sequence of Pim-1 kinase (P11309 whole entry): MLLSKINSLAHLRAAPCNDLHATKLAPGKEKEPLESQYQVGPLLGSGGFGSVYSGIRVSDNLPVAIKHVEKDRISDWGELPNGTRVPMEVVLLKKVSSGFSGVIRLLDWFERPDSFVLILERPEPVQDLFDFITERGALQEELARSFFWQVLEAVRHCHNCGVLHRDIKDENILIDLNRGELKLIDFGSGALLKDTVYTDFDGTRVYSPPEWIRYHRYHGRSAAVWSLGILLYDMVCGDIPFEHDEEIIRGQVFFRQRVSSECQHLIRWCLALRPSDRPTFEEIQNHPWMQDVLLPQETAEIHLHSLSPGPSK
Sequence of CDK1 (P06493 whole entry, species assumed): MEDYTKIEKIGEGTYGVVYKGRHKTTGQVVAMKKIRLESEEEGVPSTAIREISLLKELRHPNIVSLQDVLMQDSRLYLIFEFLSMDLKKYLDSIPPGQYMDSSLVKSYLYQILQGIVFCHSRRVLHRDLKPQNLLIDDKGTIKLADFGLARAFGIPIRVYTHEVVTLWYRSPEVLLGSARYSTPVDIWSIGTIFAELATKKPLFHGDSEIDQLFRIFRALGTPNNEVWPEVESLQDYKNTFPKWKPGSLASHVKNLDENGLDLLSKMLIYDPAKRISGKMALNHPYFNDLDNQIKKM
Sequence of CDK1 (P14635 whole entry partner, species assumed): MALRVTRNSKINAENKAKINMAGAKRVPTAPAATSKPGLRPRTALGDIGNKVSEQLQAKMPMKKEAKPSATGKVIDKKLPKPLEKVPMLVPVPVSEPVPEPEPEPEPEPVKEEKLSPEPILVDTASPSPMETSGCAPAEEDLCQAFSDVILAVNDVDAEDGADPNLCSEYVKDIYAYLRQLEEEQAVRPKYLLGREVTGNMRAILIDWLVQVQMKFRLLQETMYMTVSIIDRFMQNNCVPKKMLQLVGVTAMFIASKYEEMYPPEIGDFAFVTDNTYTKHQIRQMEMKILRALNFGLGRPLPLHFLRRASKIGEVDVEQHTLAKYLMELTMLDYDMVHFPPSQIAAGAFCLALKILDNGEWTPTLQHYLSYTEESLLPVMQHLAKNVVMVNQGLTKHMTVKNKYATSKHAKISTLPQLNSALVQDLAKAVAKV
Sequence of Able (P00519 whole entry): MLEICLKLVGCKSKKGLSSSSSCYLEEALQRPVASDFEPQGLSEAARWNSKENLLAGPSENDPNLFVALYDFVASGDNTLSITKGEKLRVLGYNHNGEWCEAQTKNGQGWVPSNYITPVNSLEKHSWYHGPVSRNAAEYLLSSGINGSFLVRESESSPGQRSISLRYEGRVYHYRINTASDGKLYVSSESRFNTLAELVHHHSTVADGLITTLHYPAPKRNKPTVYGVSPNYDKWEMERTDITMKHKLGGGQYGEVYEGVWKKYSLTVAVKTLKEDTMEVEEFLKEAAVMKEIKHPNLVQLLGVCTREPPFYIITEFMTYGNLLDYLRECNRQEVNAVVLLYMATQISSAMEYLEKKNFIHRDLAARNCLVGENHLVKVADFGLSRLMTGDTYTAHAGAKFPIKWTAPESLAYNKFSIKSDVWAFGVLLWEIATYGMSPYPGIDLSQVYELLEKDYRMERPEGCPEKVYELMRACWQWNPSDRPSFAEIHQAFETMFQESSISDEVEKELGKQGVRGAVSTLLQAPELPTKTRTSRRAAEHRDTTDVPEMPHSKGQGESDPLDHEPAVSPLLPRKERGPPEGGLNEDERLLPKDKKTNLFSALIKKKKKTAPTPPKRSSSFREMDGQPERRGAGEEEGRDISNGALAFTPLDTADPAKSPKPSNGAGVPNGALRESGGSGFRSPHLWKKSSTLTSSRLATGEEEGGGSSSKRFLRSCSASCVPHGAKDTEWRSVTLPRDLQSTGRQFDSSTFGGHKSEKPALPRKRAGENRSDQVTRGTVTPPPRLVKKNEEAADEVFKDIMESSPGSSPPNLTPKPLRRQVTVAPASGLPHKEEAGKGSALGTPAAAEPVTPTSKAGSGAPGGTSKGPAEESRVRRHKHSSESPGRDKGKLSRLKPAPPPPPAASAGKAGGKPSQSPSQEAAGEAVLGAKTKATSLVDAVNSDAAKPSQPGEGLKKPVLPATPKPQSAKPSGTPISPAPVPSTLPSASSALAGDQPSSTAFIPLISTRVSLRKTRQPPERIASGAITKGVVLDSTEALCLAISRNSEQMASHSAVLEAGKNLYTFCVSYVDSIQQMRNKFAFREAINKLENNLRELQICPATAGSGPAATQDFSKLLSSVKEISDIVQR
Sequence of c-Kit (P10721 26-976): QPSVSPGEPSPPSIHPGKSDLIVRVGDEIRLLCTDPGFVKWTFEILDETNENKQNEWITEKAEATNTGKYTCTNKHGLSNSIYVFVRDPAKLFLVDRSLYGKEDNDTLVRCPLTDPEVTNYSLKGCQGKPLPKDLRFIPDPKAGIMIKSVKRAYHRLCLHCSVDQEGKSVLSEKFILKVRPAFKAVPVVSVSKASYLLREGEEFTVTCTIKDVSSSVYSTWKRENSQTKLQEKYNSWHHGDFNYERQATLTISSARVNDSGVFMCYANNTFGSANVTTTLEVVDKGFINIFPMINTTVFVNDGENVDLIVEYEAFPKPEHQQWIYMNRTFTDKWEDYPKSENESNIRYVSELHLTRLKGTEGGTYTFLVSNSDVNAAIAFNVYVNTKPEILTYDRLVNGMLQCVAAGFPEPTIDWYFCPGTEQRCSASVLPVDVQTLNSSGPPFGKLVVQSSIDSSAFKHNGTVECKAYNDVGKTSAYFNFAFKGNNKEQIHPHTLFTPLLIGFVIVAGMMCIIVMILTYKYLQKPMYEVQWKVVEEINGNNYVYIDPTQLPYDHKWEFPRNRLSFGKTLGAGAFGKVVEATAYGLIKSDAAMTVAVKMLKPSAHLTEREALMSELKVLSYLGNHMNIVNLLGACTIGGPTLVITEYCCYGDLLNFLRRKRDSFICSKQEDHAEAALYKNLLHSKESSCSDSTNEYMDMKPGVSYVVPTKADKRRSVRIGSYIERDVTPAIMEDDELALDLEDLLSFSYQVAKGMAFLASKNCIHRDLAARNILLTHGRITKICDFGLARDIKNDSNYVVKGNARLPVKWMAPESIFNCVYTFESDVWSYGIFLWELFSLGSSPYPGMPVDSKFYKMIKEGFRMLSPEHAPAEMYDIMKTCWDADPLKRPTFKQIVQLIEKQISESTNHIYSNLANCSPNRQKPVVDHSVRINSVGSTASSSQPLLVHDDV
Sequence of Plk3 (Q9H4B4 whole entry, species assumed): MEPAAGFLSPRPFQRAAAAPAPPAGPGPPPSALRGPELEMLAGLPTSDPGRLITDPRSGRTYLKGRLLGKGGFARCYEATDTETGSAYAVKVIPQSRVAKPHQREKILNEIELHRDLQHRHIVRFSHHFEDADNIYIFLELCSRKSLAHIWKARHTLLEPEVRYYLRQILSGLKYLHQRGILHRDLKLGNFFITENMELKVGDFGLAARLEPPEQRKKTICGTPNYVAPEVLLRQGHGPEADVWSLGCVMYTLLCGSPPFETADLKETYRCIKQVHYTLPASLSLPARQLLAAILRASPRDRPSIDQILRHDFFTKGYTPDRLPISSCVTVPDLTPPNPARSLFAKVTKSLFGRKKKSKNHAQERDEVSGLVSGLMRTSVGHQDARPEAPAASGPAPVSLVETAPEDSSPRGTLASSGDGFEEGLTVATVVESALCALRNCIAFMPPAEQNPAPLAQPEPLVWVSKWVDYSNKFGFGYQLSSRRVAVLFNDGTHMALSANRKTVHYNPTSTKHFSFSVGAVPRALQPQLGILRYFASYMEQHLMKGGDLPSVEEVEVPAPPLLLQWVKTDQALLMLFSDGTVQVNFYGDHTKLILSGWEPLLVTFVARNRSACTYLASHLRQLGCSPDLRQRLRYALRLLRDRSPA
Sequence of EGFR (P00533 25-1210, species assumed): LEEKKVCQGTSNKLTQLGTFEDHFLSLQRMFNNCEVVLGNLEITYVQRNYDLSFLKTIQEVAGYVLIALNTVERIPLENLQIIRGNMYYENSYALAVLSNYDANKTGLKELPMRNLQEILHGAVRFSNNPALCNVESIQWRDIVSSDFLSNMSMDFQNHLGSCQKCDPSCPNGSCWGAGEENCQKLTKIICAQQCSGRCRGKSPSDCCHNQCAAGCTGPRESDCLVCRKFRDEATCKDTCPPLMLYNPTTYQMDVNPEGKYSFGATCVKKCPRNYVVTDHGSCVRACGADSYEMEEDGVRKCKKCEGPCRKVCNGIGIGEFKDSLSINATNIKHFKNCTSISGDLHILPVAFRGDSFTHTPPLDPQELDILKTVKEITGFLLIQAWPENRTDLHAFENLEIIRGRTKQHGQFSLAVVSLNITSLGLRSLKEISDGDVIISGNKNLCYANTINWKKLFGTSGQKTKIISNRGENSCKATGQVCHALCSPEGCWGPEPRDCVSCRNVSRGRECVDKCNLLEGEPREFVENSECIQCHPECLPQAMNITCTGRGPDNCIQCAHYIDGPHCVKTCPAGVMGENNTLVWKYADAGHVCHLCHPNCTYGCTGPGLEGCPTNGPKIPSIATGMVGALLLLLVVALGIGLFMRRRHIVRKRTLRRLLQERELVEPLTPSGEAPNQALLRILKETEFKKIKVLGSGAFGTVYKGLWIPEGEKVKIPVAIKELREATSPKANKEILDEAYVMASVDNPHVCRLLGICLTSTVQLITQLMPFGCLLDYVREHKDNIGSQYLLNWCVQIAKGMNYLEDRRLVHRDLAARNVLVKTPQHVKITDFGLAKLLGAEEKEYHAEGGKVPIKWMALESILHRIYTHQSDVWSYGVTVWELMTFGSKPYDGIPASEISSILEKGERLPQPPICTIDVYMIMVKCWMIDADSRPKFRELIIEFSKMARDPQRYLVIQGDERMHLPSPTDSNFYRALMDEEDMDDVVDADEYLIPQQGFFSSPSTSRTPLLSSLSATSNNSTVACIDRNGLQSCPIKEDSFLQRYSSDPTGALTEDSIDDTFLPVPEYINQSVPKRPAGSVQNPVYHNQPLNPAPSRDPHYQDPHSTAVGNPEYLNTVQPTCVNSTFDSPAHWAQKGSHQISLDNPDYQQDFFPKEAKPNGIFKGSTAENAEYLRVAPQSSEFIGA

## CC[C@H](N)COc1ccc2ncc(-c3cccc(OC(F)(F)F)c3)n2n1 [Compound 7-19, (S)-1-(3-(3-(trifluoromethoxy)phenyl)imidazo[1,2-b]pyridazin-6-yloxy)butan-2-amine]
[1]; [14]
  IC50: 293 nM
[2]; [15]
  IC50: 5.84 µM
[3]
  EC50: 0.635 µM

## CN1CCC(CNc2ccc3ncc(-c4cccc(OC(F)(F)F)c4)n3n2)CC1 [Compound 7-29]
[2]; Table IX (results), read-out: IC50 (K562)
  IC50: 2.29 µM
[4]; [16]
  IC50: 4.83 µM
[3]
  EC50: 0.0079 µM
[5]
  activity against Aurora-A: no significant activity
[6]
  activity against CDK1: no significant activity
[7]
  activity against CDK2: no significant activity
[8]
  activity against Plk3: no significant activity
[9]
  activity against Nek2: no significant activity
[10]
  activity against Able: no significant activity
[11]
  activity against c-Kit: no significant activity
[12]
  activity against EGFR: no significant activity
[13]
  activity against Jak2: no significant activity

## CN1CCC(COc2ccc3ncc(-c4cccc(OC(F)(F)F)c4)n3n2)CC1 [Compound 7-33, 6-((1-methylpiperidin-4-yl)methoxy)-3-(3-(trifluoromethoxy)phenyl)imidazo[1,2-b]pyridazine]
[1]; [14]
  IC50: 405 nM and 282 nM
[2]; [15]
  IC50: 5.99 µM
[4]; [16]
  IC50: 14.4 µM

## CCC(CO)Nc1ccc2ncc(-c3ccc(N(C)C)cc3)n2n1 (stereo not drawn) [Compound 7-1]
[1]; IC50 (Kinase inhibitory activity), Table V, Pim-1 kinase, Kinase-Glo
  IC50: 3990 nM
[1]; Table VIII (results), values in uM, read-out: IC50(Kinase)
  IC50: 3990 nM
[2]; [15]
  IC50: 67.1 µM
[2]; K562, read-out: IC50 K562 Cells (inhibit cell growth to 50% of untreated), Table VI
  IC50: 67.1 µM
[4]; [16]
  IC50: 29.2 µM
[4]; read-out: IC50 PC-3 Cells (inhibit cell growth to 50% of untreated), Table VI
  IC50: 29.2 µM

## O=C(C1CC1)N1CCC(CNc2ccc3ncc(-c4cccc(OC(F)(F)F)c4)n3n2)CC1 [Compound 7-36, Cyclopropyl(4-((3-(3-(trifluoromethoxy)phenyl)imidazo[1,2-b]pyridazin-6-ylamino)methyl)piperidin-1-yl)methanone]
[1]; [14]
  IC50: 73 nM
[2]; [15]
  IC50: 6.91 µM
[4]; [16]
  IC50: 33.3 µM
